# Assays:
# [1] = tested on: adolescents in trial 4180; design: species or system human; conditions: in vivo
# Procedure: The analyses were conducted using response data at week 20 (phase 2 trial 1807), week 50 (phase 3a trial 1922) or week 56 (phase 3a trials 4180 and 1839) to align with the original analysis in adults. The appropriateness of using different trial lengths for the historical adult trials was evaluated by graphically exploring the weight loss longitudinally. This was deemed appropriate as the maximal effect on weight reduction was reached after 20 weeks of treatment and remained stable thereafter for the trials of longer duration. […] The two age groups differed in the placebo group response, with lower mean responses in adolescents; this difference was consistent across the exposure range as well. […] However, the effect of age group on the maximal effect in the model (Emax) was not significant in these analyses. […] Approximately 64% of the adolescents in the exposure‐response analysis grew more than 0.5 cm during the trial. Of these, some received liraglutide and some received placebo.
# [2] = tested on: pubertal adolescents with obesity; conditions: 56-week trial, liraglutide in addition to lifestyle therapy; 95% CI -0.37, -0.08; P = 0.002; cited from earlier work
# [3] = Population pharmacokinetic analysis of liraglutide (one-compartment model, NONMEM FOCE-I; plasma ELISA); assay type: in vivo, human; conditions: for Absorption rate constant KA / Apparent volume of distribution V/F: parameter fixed
# Procedure: As the focus of the analysis was a comparison of different age populations, age was prespecified to be included initially as a categorical variable.
# In trial 4180, Tanner staging (stages 2‐5) of adolescents was assessed by site staff trained in pubertal assessments. For females, assessments of breast and pubic hair development were made. For males, assessments of testicular volume (by orchidometer), penis development and pubic hair development were made. Prepubertal patients were not permitted in the trial.
# The structural model was parameterized in terms of the following parameters: • ka (absorption rate constant) • CL/F (apparent clearance) • V/F (apparent volume of distribution)
# The first‐order conditional estimation with interaction (FOCE‐I) method was used for the population pharmacokinetic analysis, implemented in the non‐linear mixed effects modelling (NONMEM) software.
# An analysis of the influence of covariates on exposure was carried out including all tested covariates in one step, using a confirmatory approach,[32] and disregarding any interactions between age group and sex. Model development involved estimation of a base model without covariates and a full model including all predefined covariates. If any covariates without statistically significant effect could be excluded, the reduced model would be considered the final population pharmacokinetic model. The covariates were prespecified and based on earlier findings in phase 3 trials with adults as well as prior knowledge from smaller trials in children and adolescents.
# Specific steady‐state exposures for individual participants were based on the full model, including all covariates, and derived from the subject‐specific post‐hoc CL/F estimates, the maintenance dose and the dose interval (24 hours): (6) Cavg=Dose/CL/F*24hours
# The CIs for full model parameters were estimated using bootstrapping. For each investigated covariate, differences were considered relevant if the 90% CI of the estimated mean of the relative exposure fell outside the standard bioequivalence limits (0.80‐1.25).
# Between‐subject variability was included for CL/F and V/F, assuming log‐normal distributions […]. Furthermore, CL/F and V/F were estimated using a full variance‐covariance matrix. No between‐subject variability was included for ka. Within‐subject variability (residual) was described by a proportional error model. Standard graphical quality analyses, including goodness‐of‐fit plots (Figure S1), were made during qualification of the pharmacokinetic model.
# [4] = base pharmacokinetic model without covariates
compound,measurement,setting,value
CCCCCCCCCCCCCCCC(=O)N[C@@H](CCC(=O)NCCCC[C@H](NC(=O)[C@H](C)NC(=O)[C@H](C)NC(=O)[C@H](CCC(N)=O)NC(=O)CNC(=O)[C@H](CCC(=O)O)NC(=O)[C@H](CC(C)C)NC(=O)[C@H](Cc1ccc(O)cc1)NC(=O)[C@H](CO)NC(=O)[C@H](CO)NC(=O)[C@@H](NC(=O)[C@H](CC(=O)O)NC(=O)[C@H](CO)NC(=O)[C@@H](NC(=O)[C@H](Cc1ccccc1)NC(=O)[C@@H](NC(=O)CNC(=O)[C@H](CCC(=O)O)NC(=O)[C@H](C)NC(=O)[C@@H](N)Cc1cnc[nH]1)[C@@H](C)O)[C@@H](C)O)C(C)C)C(=O)N[C@@H](CCC(=O)O)C(=O)N[C@@H](Cc1ccccc1)C(=O)N[C@H](C(=O)N[C@@H](C)C(=O)N[C@@H](Cc1c[nH]c2ccccc12)C(=O)N[C@@H](CC(C)C)C(=O)N[C@H](C(=O)N[C@@H](CCCNC(=N)N)C(=O)NCC(=O)N[C@@H](CCCNC(=N)N)C(=O)NCC(=O)O)C(C)C)[C@@H](C)CC)C(=O)O [liraglutide],Average growth (height) during the trial,[1],1.4 cm
same,"BMI standard-deviation score (SDS), estimated treatment difference compared with placebo",[2],−0.22
same,Absorption rate constant KA,[3]; [4],0.0804 h⁻¹
same,Apparent volume of distribution V/F,[3]; [4],13.1 L
same,Absorption rate constant KA,"[3]; final (full covariate) pharmacokinetic model, trials 4180, 3967, 3630, 4181, children, adolescents and adults with obesity, N = 176",0.0813 h⁻¹
same,Body weight exponent on V/F (V-BW),[3]; final pharmacokinetic model,0.587
same,Apparent volume of distribution V/F,"[3]; final pharmacokinetic model, reference subject adult female, 100 kg",13.8 L

# — article PMC8519033 (Pediatric Obesity, 2021)
